Literature values as cited in patent US20250082671A1, “ANIMAL FEED ADDITIVE COMPOSITION, PRE-MIX FEED COMPOSITION AND MANUFACTURING METHOD FOR SUB CLINICAL HYPCALCEMIA RELIEF, ENERGY IMPROVEMENT AND INCREASED MILK PRODUCTION” (Chemlock Metals Corp., priority 2023, published 2025).

System: cows
Details: multiparous cows compared to un-supplemented ones

## chromium propionate complex
  dry matter intake (DMI): on average higher
